# Measured values from ChEMBL document CHEMBL1201862, “PubChem BioAssay data set” (2004).
# The source made the active and inactive calls.
# Experiments:
# Protein RecA = target: T1, Protein RecA (Mycobacterium tuberculosis, UniProt P9WHJ3); assay: Fluorescence Cell-Free Homogeneous Dose Retest to Identify Inhibitors of RecA-Intein Splicing Activity. [Related pubchem assays (depositor defined):AID2097, AID2223, AID489010, AID492950]; format: functional
# T1 sequence (P9WHJ3 whole entry): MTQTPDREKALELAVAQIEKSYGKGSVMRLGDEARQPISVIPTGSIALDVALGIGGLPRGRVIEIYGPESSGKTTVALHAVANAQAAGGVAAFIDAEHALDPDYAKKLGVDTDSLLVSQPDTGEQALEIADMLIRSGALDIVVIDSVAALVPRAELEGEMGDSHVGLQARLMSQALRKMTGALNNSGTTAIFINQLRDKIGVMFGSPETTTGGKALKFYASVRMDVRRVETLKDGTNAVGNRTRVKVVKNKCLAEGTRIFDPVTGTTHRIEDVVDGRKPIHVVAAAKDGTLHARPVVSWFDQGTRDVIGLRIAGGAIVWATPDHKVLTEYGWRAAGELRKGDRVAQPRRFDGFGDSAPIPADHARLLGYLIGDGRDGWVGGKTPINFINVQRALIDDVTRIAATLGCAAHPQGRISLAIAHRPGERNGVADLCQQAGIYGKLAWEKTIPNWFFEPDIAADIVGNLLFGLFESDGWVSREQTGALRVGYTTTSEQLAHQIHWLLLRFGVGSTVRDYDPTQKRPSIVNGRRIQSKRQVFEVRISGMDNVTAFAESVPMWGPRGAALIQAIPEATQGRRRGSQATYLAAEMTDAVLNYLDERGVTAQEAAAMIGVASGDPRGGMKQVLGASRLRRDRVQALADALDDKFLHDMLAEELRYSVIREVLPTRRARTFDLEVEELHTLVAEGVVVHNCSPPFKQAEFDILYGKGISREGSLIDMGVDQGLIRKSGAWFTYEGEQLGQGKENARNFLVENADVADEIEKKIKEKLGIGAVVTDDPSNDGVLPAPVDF
# [1] = NIH-3T3 fibroblast cytotoxicity, dose response, cytotoxicity control, cell-based, fluorescence, Alamar Blue, secondary assay (AID 2327); format: functional;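 also: NIH-3T3 mouse fibroblasts cultured with fluconazole at 8 µg/mL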
# [2] = C. albicans growth with fluconazole, confirmation, fluorescence, retest (AID 2467); format: functional, cell-based
# [3] = tested on: Streptococcus sp. 'group A'; assay: growth inhibition of control SK(-) GAS strain, dose response, counter-screen for streptokinase expression inhibitor project, luminescence, kanamycin, BacTiterGlo, confirmation (AID 1900); format: functional, organism-based
# Streptococcus = assay: Group A Streptococcus viability loss, dose response, counter-screen for streptokinase expression inhibitor project, luminescence, BacTiterGlo (AID 1915); format: functional, organism-based;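 also: potency for reduction of bacterial viability or growth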
# [4] = Luminescence Cell-Based Dose Retest to Confirm Inhibitors of Cancer Stem Cells. [Related pubchem assays (depositor defined):AID2717, AID2721]; format: functional; settings: Homo sapiens
# Cytochrome P450 3A4 = Cytochrome P450 3A4 (Homo sapiens, UniProt P08684);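 also: CYP3A4 tested as one member of a cytochrome P450 panel screen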
# Streptokinase A = target: T2, Streptokinase A (Streptococcus pyogenes serotype M1, UniProt P10520); assay: S. pyogenes streptokinase expression inhibitors, potency, dose response, plasminogen activation absorbance, OD405 (AID 1914); format: functional, Streptococcus pyogenes M1 GAS;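 also: secreted streptokinase activity via plasminogen activation per viability signal from cell pellet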
# T2 sequence (P10520 whole entry): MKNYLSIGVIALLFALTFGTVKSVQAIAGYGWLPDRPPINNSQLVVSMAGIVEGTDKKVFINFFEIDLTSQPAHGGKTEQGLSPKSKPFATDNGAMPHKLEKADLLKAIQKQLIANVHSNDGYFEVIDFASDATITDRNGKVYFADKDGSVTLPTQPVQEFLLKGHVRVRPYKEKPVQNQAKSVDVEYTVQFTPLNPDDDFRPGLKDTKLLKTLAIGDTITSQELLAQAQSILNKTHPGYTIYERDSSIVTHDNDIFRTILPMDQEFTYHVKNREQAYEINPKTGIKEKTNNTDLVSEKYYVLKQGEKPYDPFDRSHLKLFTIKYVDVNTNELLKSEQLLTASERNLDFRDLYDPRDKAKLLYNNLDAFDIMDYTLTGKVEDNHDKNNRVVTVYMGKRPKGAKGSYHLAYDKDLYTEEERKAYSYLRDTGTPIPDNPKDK
# Cytochrome P450 2C19 = Cytochrome P450 2C19 (Homo sapiens, UniProt P33261); assay: Cytochrome panel assay with activity outcomes. Panel member name: p450-cyp2c19 Compounds with AC50 equal or less than 10 uM are considered active; format: functional; settings: read-out: AC50
# [5] = inhibitors of intracellular T. cruzi replication, confirmation, NIH3T3 host cells, beta-gal luminescence (AID 2044); format: functional, cell-based;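 also: intracellular parasites grown in NIH/3T3 mouse fibroblasts as host cells; luminescent beta-galactosidase reporter signal from transgenic T. cruzi replicating inside host cells; inhibitors lower the luminescence signal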
# [6] = cytotoxicity toward NIH3T3 fibroblasts, dose response, counter-screen, cell-based, ATP luminescence, mouse fibroblasts (AID 2010); format: functional;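 also: cells exposed to compound for about 90 hours before reading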
# INS1 = assay: beta cell apoptosis inhibitors, cytokine rescue, dose response, luminescence, retest (AID 449756); format: functional, cell-based; settings: Rattus norvegicus;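 also: cell death triggered by IL-1 beta plus TNF-alpha plus IFN-gamma mixture; protective hits raise ATP signal compared with cytokine alone wells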
# Cytochrome P450 1A2 = target: T3, Cytochrome P450 1A2 (Homo sapiens, UniProt P05177);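 also: PubChem cytochrome P450 panel assay, CYP1A2 panel member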
# T3 sequence (P05177 whole entry): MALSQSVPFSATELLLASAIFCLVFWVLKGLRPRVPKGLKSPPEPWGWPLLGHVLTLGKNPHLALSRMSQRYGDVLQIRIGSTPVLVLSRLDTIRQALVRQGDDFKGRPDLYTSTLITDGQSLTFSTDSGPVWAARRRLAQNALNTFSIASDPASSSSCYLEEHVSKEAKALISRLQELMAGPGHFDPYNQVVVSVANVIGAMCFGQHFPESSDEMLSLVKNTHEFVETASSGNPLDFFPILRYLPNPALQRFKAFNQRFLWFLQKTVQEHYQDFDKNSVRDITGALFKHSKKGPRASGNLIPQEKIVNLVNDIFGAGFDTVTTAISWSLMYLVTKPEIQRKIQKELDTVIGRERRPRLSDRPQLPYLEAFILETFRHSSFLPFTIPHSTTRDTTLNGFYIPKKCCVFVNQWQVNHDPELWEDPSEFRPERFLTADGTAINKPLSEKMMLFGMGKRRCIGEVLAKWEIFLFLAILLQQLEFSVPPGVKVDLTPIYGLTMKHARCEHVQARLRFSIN
# [7] = HEp-2 cell cytotoxicity, dose response, cytotoxicity control for RSV inhibitor project, HTS (AID 2410); format: functional; settings: human respiratory syncytial virus
# Cytochrome P450 3A4, sequence (P08684 whole entry): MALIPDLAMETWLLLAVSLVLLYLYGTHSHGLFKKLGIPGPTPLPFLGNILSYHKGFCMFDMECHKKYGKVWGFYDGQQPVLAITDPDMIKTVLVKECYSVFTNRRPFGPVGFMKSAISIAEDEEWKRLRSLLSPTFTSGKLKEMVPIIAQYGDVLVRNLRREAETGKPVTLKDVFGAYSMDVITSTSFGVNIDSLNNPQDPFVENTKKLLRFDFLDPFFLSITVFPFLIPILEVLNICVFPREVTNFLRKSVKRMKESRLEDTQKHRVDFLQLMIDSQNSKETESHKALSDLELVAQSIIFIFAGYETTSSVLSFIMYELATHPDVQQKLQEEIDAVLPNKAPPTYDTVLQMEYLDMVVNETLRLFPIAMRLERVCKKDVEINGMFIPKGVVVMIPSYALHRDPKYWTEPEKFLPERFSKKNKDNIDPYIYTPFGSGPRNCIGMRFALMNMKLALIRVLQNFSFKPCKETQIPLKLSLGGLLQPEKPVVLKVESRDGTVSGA
# Cytochrome P450 2C19, sequence (P33261 whole entry): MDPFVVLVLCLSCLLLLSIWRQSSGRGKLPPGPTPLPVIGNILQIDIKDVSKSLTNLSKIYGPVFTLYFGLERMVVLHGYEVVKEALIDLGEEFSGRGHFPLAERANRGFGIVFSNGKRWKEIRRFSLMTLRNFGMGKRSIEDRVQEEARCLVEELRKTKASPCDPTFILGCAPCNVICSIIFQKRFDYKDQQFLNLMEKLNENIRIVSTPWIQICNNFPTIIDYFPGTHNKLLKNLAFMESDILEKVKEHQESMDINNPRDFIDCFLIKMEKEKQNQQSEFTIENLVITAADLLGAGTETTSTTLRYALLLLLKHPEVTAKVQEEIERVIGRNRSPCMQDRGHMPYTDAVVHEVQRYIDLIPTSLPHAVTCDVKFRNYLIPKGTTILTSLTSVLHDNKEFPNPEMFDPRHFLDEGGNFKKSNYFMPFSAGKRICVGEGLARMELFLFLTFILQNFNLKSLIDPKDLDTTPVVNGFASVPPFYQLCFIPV
smiles,measurement,setting,value
CC1=NN(c2cccc(Cl)c2)C(=O)C12CC(C)=C(C)CS2 (stereo not drawn),EC50,Protein RecA,13.2 µM (active)
O=C1NN(c2ccc(F)cc2)C(=O)/C1=C/c1cccs1,EC50,[1],> 160 µM (inactive)
same,EC50,[2],> 38 µM (not active)
COc1ccc(-c2csc(N(CC3CCCO3)C(=O)c3ccco3)n2)cc1 (stereo not drawn),EC50,[1],> 160 µM (inactive)
same,EC50,[2],> 38 µM (not active)
O=C1NC[C@@H](Cc2cccc3ccccc23)N(CCCCC2CCCCC2)C1=O,EC50,[3],3.38 µM (active)
same,EC50,Streptococcus,7.07 µM (active)
same,AC50,[4],3.84 µM (active)
CCCC(=O)N1c2ccccc2C(N(C(C)=O)c2ccccc2)CC1C (stereo not drawn),AC50,Cytochrome P450 3A4,0.891 µM (inconclusive)
O=C1CCCC=C1[C@H](CCc1ccccc1)OC(=O)c1ccc(Br)cc1,AC50,Cytochrome P450 3A4,5.01 µM (inconclusive)
O=C(NC(=S)Nc1cccc(-c2ccc(CO)o2)c1)c1cccs1,EC50,[3],23.1 µM (active)
same,EC50,Streptokinase A,> 150 µM (not active)
same,EC50,Streptococcus,68.4 µM (active)
O=C(Nc1ccc(F)cc1)N1CCCCCC1,EC50,[3],> 150 µM (not active)
same,EC50,Streptokinase A,> 150 µM (not active)
same,EC50,Streptococcus,> 150 µM (not active)
COc1ccc(N2C(=O)NC3CC2(C)Oc2ccccc23)cc1OC (stereo not drawn),AC50,Cytochrome P450 2C19,7.94 µM (inconclusive)
same,AC50,Cytochrome P450 3A4,22.4 µM (inconclusive)
COc1ccc(NC(=O)N2CCCC3(CCN(C(=O)c4cc(C(F)(F)F)cc(C(F)(F)F)c4)CC3)C2)cc1,AC50,Cytochrome P450 3A4,10 µM (inconclusive)
CCC(C)n1c(-c2cccs2)nc2nc3ccccc3nc21 (stereo not drawn),AC50,[4],2.73 µM (active)
CSc1ccc(C2=CC(=O)C[C@H](c3ccc(Cl)cc3)C2)cc1,AC50,[4],1.7 µM (active)
CC(C)N=C(S)NC(c1ccccc1)(c1ccccc1)c1ccccc1,EC50,[3],6.6 µM (active)
same,EC50,[5],3.99 µM (active)
same,EC50,[6],> 60 µM (not active)
same,EC50,Streptococcus,> 150 µM (not active)
same,AC50,INS1,8.18 µM (active)
O=C(Nc1ccc(O)cc1)c1ccc(NC(=O)c2cccs2)cc1,AC50,[4],3.51 µM (active)
Cc1ccccc1-c1ccnc2[nH]n(-c3ccccc3)c(=O)c12,EC50,[1],> 160 µM (inactive)
same,EC50,[2],> 38 µM (not active)
COc1cc(/C=C(\C#N)c2ccccn2)ccc1OCC(=O)Nc1ccc(Br)cc1,AC50,[4],1.71 µM (active)
Cc1ccc(NC(S)=NC2CCCC2)cc1,AC50,Cytochrome P450 3A4,10 µM (inconclusive)
O=C(Nc1ccccc1)N1CC[C@@]2(CCCN(C(=O)c3ccncc3)C2)C1,AC50,Cytochrome P450 3A4,15.8 µM (inconclusive)
CCn1nnnc1NC(=O)c1cc(Cl)c(OC)c(Cl)c1,EC50,[1],> 160 µM (inactive)
same,EC50,[2],2.51 µM (active)
CCc1c(C)sc2nc(C(C)C)nc(SCC(=O)N3CCc4ccccc4C3)c12,EC50,[3],9.77 µM (active)
same,EC50,Streptokinase A,2.38 µM (active)
same,EC50,Streptococcus,15.1 µM (active)
same,AC50,[4],4.63 µM (active)
same,AC50,INS1,1.94 µM (active)
O=c1c2cc(Br)ccc2nc(-c2ccccc2)n1O,EC50,[1],70.4 µM (active)
same,EC50,[2],1.99 µM (active)
COc1ccc(CNC(=O)Cc2csc(NC(=O)Nc3ccccc3OC)n2)cc1,EC50,[3],> 150 µM (not active)
same,EC50,Streptokinase A,> 150 µM (not active)
same,EC50,Streptococcus,> 150 µM (not active)
COCc1ccc(O)c2ncccc12,AC50,INS1,5 µM (active)
COc1ccc(NC(=O)N2CCCC3(CCN(C(=O)c4cccc(F)c4)CC3)C2)cc1,AC50,Cytochrome P450 3A4,15.8 µM (inconclusive)
CC(COc1ccc(C(C)C)cc1)NC(=O)c1ccc(Br)o1 (stereo not drawn),EC50,[3],45.6 µM (active)
same,EC50,Streptokinase A,> 150 µM (not active)
same,EC50,Streptococcus,> 150 µM (not active)
CC(C)C(=O)NC(c1ccccc1)c1cc([N+](=O)[O-])c2cccnc2c1O (stereo not drawn),EC50,[3],2.12 µM (active)
same,EC50,Streptokinase A,> 150 µM (not active)
same,EC50,Streptococcus,2.98 µM (active)
same,AC50,[4],1.27 µM (active)
same,AC50,INS1,6.59 µM (active)
Oc1ccc(Oc2ccc(Oc3ccc(O)cc3)cc2)cc1,EC50,[3],8.4 µM (active)
same,EC50,Streptokinase A,> 150 µM (not active)
same,EC50,Streptococcus,18.4 µM (active)
CCCC(O)(c1ccc(Cl)cc1)C(CN1CCOCC1)c1ccc(Cl)cc1 (stereo not drawn),AC50,[4],6 µM (active)
Cc1cc2nc(C3CCCN(C(S)=Nc4ccccc4)C3)[nH]c2cc1C (stereo not drawn),AC50,Cytochrome P450 2C19,7.08 µM (inconclusive)
same,AC50,Cytochrome P450 1A2,1.58 µM (inconclusive)
same,AC50,Cytochrome P450 3A4,0.141 µM (inconclusive)
Cc1ccc(N=Nc2c(N)nn3c(O)c4c(nc23)CCCC4)cc1,AC50,Cytochrome P450 3A4,7.94 µM (inconclusive)
Cc1cc(OCc2nc(-c3ccc(NC(=O)c4cccnc4)cc3)no2)ccc1Cl,CC50,[7],> 50 µM (active)
same,AC50,INS1,0.624 µM (active)
CCN=C(S)N1N=C2c3ccccc3CCC2C1c1ccc(F)cc1 (stereo not drawn),AC50,[4],1.46 µM (active)
COc1ccc(CNc2cc(-c3ccccc3CN(C)C)ncn2)c(OC)c1,AC50,Cytochrome P450 1A2,15.8 µM (inconclusive)
same,AC50,Cytochrome P450 3A4,15.8 µM (inconclusive)
CCN(CC)CCN(C(=O)C1=COCCO1)c1nc2cc(C)cc(C)c2s1,EC50,[3],> 150 µM (not active)
same,EC50,Streptokinase A,> 150 µM (not active)
same,EC50,Streptococcus,> 150 µM (not active)
NS(=O)(=O)Cc1noc2ccccc12,AC50,Cytochrome P450 3A4,31.6 µM (inconclusive)
O=C(CC1CC2CCC1C2)NCCc1ccc(Cl)cc1 (stereo not drawn),AC50,INS1,> 260 µM (inactive)
CC1(C)CC[C@]2(CO)CC[C@]3(C)C(=CCC4[C@@]5(C)CC[C@H](O)[C@@](C)(CO)C5CC[C@]43C)[C@@H]2C1 (stereo partly drawn),AC50,[4],3.13 µM (active)
C/C(=N/NC(=O)c1cc(-c2ccccc2)nc2c(Cl)cccc12)c1cccnc1,EC50,[3],> 150 µM (not active)
same,EC50,Streptokinase A,25.9 µM (inconclusive)
same,EC50,Streptococcus,> 150 µM (not active)
Cc1[nH]n(-c2ccccc2)c(=O)c1/C=C1/C(=O)NN(c2ccc(F)cc2)C1=O,AC50,[4],4.08 µM (active)
COc1cc(/C=N/Nc2nc(Nc3ccccc3)nc(-n3nc(C)cc3C)n2)cc(OC)c1OC,EC50,[3],5.1 µM (active)
same,EC50,Streptokinase A,> 150 µM (not active)
same,EC50,[5],0.737 µM (active)
same,EC50,[6],7.23 µM (active)
same,EC50,Streptococcus,13.8 µM (active)
same,AC50,[4],3.63 µM (active)
